Literature values as cited in patent US20140005605A1, “USE OF QUORUM SENSING INHIBITORS AND BIOFILM DISPERSING AGENTS FOR CONTROLLING BIOFILM-ASSOCIATED IMPLANTABLE MEDICAL DEVICE RELATED INFECTIONS” (priority 2012, published 2014).

Columns and labels:
Pseudomonas aeruginosa = details: mice treated with the QSI; promoted clearance by the murine immune system
[1] = system: biofilms formed by Pseudomonas aeruginosa
[2] = system: biofilms formed by Staphylococcus aureus

Compound	biofilm formation (Pseudomonas aeruginosa)	effectiveness against biofilms [1]	effectiveness against biofilms [2]
O=C1C=C(Br)/C(=C/Br)O1 [furanone C-30]	inhibited biofilm formation	–	–
O=[N+]([O-])c1cc[n+]([O-])cc1 [4-nitro-pyridine-N-oxide]	–	effective	effective
CCCCCCC/C=C\C(=O)O [cis-2-decanoic acid]	–	effective	effective
